According to ChEMBL document CHEMBL3758161, “Synthesis and evaluation of antibacterial and antitumor activities of new galactopyranosylated amino alcohols” (Eur J Med Chem, 2016):
Converted amounts (≈) assume the structure as drawn.

Tests used:
[1] = tested on: Mycobacterium tuberculosis; assay: microbe, parasite or virus in culture; conditions: H37Rv
Description: Antibacterial activity against Mycobacterium tuberculosis H37Rv

[2] = Lipophilicity, log P of the compound; type: physicochemical; conditions: octanol/water
[3] = Cytotoxicity against human GM07492A cells assessed as cell growth inhibition after 24 hrs by XTT assay; type: cell-based
HeLa = assay: Cytotoxicity against human HeLa cells assessed as cell growth inhibition after 24 hrs by XTT assay; type: functional, cell-based
M059J = assay: Cytotoxicity against human M059J cells assessed as cell growth inhibition after 24 hrs by XTT assay; type: functional, cell-based
MCF7 [4] = assay: cells; conditions: Homo sapiens, MCF7, 24 h
Description: Cytotoxicity against human MCF7 cells assessed as cell growth inhibition after 24 hrs by XTT assay

MCF7 [5] = assay: Selectivity index, ratio of IC50 for human GM07492A cells to IC50 for human MCF7 cells; type: functional
Escherichia coli [6] = assay: Bactericidal activity against gram-negative Escherichia coli ATCC 11229 after 24 hrs by broth dilution method; type: functional; conditions: ATCC 11229, 24 h
[7] = tested on: Staphylococcus epidermidis; assay: Antibacterial activity against gram-positive Staphylococcus epidermidis ATCC 12228 at 5 mg/ml incubated overnight by agar well diffusion method; type: functional; conditions: read-out: DIZ
Staphylococcus aureus [8] = assay: Bactericidal activity against gram-positive Staphylococcus aureus ATCC 3591 after 24 hrs by broth dilution method; type: functional; conditions: ATCC 3591, 24 h
[9] = tested on: Staphylococcus epidermidis; assay: Bactericidal activity against gram-positive Staphylococcus epidermidis ATCC 12228 after 24 hrs by broth dilution method; type: functional; conditions: ATCC 12228, 24 h
Pseudomonas aeruginosa [10] = assay: Bactericidal activity against gram-negative Pseudomonas aeruginosa ATCC 2785 after 24 hrs by broth dilution method; type: functional; conditions: ATCC 2785, 24 h
Pseudomonas aeruginosa [11] = assay: Antibacterial activity against gram-negative Pseudomonas aeruginosa ATCC 2785 at 5 mg/ml incubated overnight by agar well diffusion method; type: functional; conditions: read-out: DIZ
Staphylococcus aureus [12] = assay: Antibacterial activity against gram-positive Staphylococcus aureus ATCC 3591 at 5 mg/ml incubated overnight by agar well diffusion method; type: functional; conditions: read-out: DIZ
Escherichia coli [13] = assay: Antibacterial activity against gram-negative Escherichia coli ATCC 11229 at 5 mg/ml incubated overnight by agar well diffusion method; type: functional; conditions: read-out: DIZ

CCCCCCCCCCCCNCCN
MIC [1]: 27 µM (≈ 6.17 µg/mL)
logP [2]: 4.69

CCCCCCCCCCCCNCCO
MIC [1]: 27 µM (≈ 6.19 µg/mL)
logP [2]: 3.93

CCCCCCCCNCCO
MIC [1]: 577 µM (≈ 100 µg/mL)
logP [2]: 2.55

CCCCCCCCCCNCCO
MIC [1]: 248 µM (≈ 49.9 µg/mL)
logP [2]: 3.09

CCCCCCCCCCCCN(CCO)C[C@@H](O)COC[C@H]1O[C@@H]2OC(C)(C)O[C@@H]2[C@H]2OC(C)(C)O[C@H]21
IC50 [3]: 260 µM
IC50 (HeLa): 105 µM
IC50 (M059J): 97.8 µM
MIC [1]: 29 µM (≈ 15.8 µg/mL)
logP [2]: 4.22
IC50 (MCF7 [4]): 75.7 µM
Ratio IC50 (MCF7 [5]): 3.4

CCCCCCCCC(O)CNCCO (stereo unspecified)
MIC [1]: 460 µM (≈ 100 µg/mL)
logP [2]: 2.14

CCCCCCCCCCCCC(O)CNCCO (stereo unspecified)
MIC [1]: 46 µM (≈ 12.6 µg/mL)
logP [2]: 4.69

CCCCCCCCCCNCCCN
MIC [1]: 116 µM (≈ 24.9 µg/mL)
logP [2]: 2.82

CCCCCCCCCCNCCN
MIC [1]: 249 µM (≈ 49.9 µg/mL)
logP [2]: 2.71

CCCCCCCCCCCCCCNCCN
MIC [1]: 97 µM (≈ 24.9 µg/mL)
logP [2]: 4.5

CCCCCCCCCCC(O)CNCCO (stereo unspecified)
MIC [1]: 102 µM (≈ 25 µg/mL)
logP [2]: 3.62

CCCCCCCCCCCCN(CCO)C[C@H](O)COC[C@H]1O[C@@H]2OC(C)(C)O[C@@H]2[C@H]2OC(C)(C)O[C@H]21
IC50 [3]: 162 µM
IC50 (HeLa): 162 µM
MIC [1]: 15 µM (≈ 8.19 µg/mL)
logP [2]: 4.22
IC50 (MCF7 [4]): 182 µM
Ratio IC50 (MCF7 [5]): 0.8

CCCCCCCCCCCCCCNCCCN
MIC [1]: 46 µM (≈ 12.4 µg/mL)
logP [2]: 4.88

CCCCCCCCCCCCNCCCN
MIC [1]: 103 µM (≈ 25 µg/mL)
logP [2]: 5.06

CCCCCCCCCCC(O)CN(CCO)CC(O)COC[C@H]1O[C@@H]2OC(C)(C)O[C@@H]2[C@H]2OC(C)(C)O[C@H]21 (mixture of isomers)
MIC [1]: 175 µM
logP [2]: 3.37
MBC (Escherichia coli [6]): > 911 µM
zone of inhibition at 5000 µg/mL [7]: 11 mm
MBC (Staphylococcus aureus [8]): > 911 µM
MBC [9]: 28 µM
MBC (Pseudomonas aeruginosa [10]): > 911 µM
zone of inhibition at 5000 µg/mL (Pseudomonas aeruginosa [11]): 20 mm

CCCCCCCCCCCCCCN(CCO)CC(O)COC[C@H]1O[C@@H]2OC(C)(C)O[C@@H]2[C@H]2OC(C)(C)O[C@H]21 (mixture of isomers)
IC50 [3]: 83 µM
IC50 (HeLa): 87.7 µM
IC50 (M059J): 12.8 µM
MIC [1]: 22 µM
logP [2]: 5.06
MBC (Escherichia coli [6]): > 892 µM
IC50 (MCF7 [4]): 30.8 µM
Ratio IC50 (MCF7 [5]): 2.7
zone of inhibition at 5000 µg/mL [7]: 30 mm
zone of inhibition at 5000 µg/mL (Staphylococcus aureus [12]): 18 mm
MBC (Staphylococcus aureus [8]): 111 µM
MBC [9]: 3 µM
MBC (Pseudomonas aeruginosa [10]): 892 µM

CCCCCCCCN(CCO)CC(O)COC[C@H]1O[C@@H]2OC(C)(C)O[C@@H]2[C@H]2OC(C)(C)O[C@H]21 (mixture of isomers)
MIC [1]: > 204 µM
logP [2]: 2.55

CCCCCCCCC(O)CN(CCO)CC(O)COC[C@H]1O[C@@H]2OC(C)(C)O[C@@H]2[C@H]2OC(C)(C)O[C@H]21 (mixture of isomers)
MIC [1]: > 187 µM
logP [2]: 2.43
MBC (Escherichia coli [6]): > 959 µM
zone of inhibition at 5000 µg/mL [7]: 22 mm
zone of inhibition at 5000 µg/mL (Staphylococcus aureus [12]): 16 mm
MBC (Staphylococcus aureus [8]): 240 µM
MBC [9]: 120 µM
MBC (Pseudomonas aeruginosa [10]): > 959 µM
zone of inhibition at 5000 µg/mL (Pseudomonas aeruginosa [11]): 18 mm

CCCCCCCCCCCCN(CCO)CC(O)COC[C@H]1O[C@@H]2OC(C)(C)O[C@@H]2[C@H]2OC(C)(C)O[C@H]21 (mixture of isomers)
IC50 [3]: 282 µM
IC50 (HeLa): 125 µM
IC50 (M059J): 110 µM
MIC [1]: 23 µM
logP [2]: 4.22
MBC (Escherichia coli [6]): > 938 µM
IC50 (MCF7 [4]): 104 µM
Ratio IC50 (MCF7 [5]): 2.7
zone of inhibition at 5000 µg/mL [7]: 20 mm
MBC (Staphylococcus aureus [8]): > 938 µM
MBC [9]: 4 µM
MBC (Pseudomonas aeruginosa [10]): > 938 µM
zone of inhibition at 5000 µg/mL (Pseudomonas aeruginosa [11]): 20 mm

CCCCCCCCCCCCC(O)CN(CCO)CC(O)COC[C@H]1O[C@@H]2OC(C)(C)O[C@@H]2[C@H]2OC(C)(C)O[C@H]21 (mixture of isomers)
MBC (Escherichia coli [6]): > 868 µM
zone of inhibition at 5000 µg/mL [7]: 18 mm
zone of inhibition at 5000 µg/mL (Staphylococcus aureus [12]): 20 mm
MBC (Staphylococcus aureus [8]): > 868 µM
MBC [9]: 13 µM
MBC (Pseudomonas aeruginosa [10]): > 868 µM

CCCCCCCCCCN(CCO)CC(O)COC[C@H]1O[C@@H]2OC(C)(C)O[C@@H]2[C@H]2OC(C)(C)O[C@H]21 (mixture of isomers)
MIC [1]: 96 µM
logP [2]: 3.39
MBC (Escherichia coli [6]): > 988 µM
zone of inhibition at 5000 µg/mL [7]: 20 mm
zone of inhibition at 5000 µg/mL (Staphylococcus aureus [12]): 20 mm
MBC (Staphylococcus aureus [8]): 123 µM
MBC [9]: 61 µM
MBC (Pseudomonas aeruginosa [10]): 988 µM

CCCCCCCCCCCCNCCCNCC(O)COC[C@H]1O[C@@H]2OC(C)(C)O[C@@H]2[C@H]2OC(C)(C)O[C@H]21 (mixture of isomers)
IC50 [3]: 23.5 µM
IC50 (HeLa): 34.5 µM
IC50 (M059J): 34.8 µM
MIC [1]: 22 µM
logP [2]: 4.09
MBC (Escherichia coli [6]): > 916 µM
IC50 (MCF7 [4]): 27.8 µM
Ratio IC50 (MCF7 [5]): 0.8
zone of inhibition at 5000 µg/mL [7]: 19 mm
zone of inhibition at 5000 µg/mL (Staphylococcus aureus [12]): 20 mm
MBC (Staphylococcus aureus [8]): > 916 µM
MBC [9]: > 916 µM
MBC (Pseudomonas aeruginosa [10]): > 916 µM

CCCCCCCCCCNCCCNCC(O)COC[C@H]1O[C@@H]2OC(C)(C)O[C@@H]2[C@H]2OC(C)(C)O[C@H]21 (mixture of isomers)
zone of inhibition at 5000 µg/mL (Escherichia coli [13]): 28 mm
IC50 [3]: 29.4 µM
IC50 (HeLa): 57 µM
IC50 (M059J): 53.8 µM
MIC [1]: 23 µM
logP [2]: 3.26
MBC (Escherichia coli [6]): 241 µM
IC50 (MCF7 [4]): 32.2 µM
Ratio IC50 (MCF7 [5]): 0.9
zone of inhibition at 5000 µg/mL (Staphylococcus aureus [12]): 12 mm
MBC (Staphylococcus aureus [8]): 60 µM
MBC [9]: 15 µM
MBC (Pseudomonas aeruginosa [10]): > 965 µM

CCCCCCCCCCCCCCNCCCNCC(O)COC[C@H]1O[C@@H]2OC(C)(C)O[C@@H]2[C@H]2OC(C)(C)O[C@H]21 (mixture of isomers)
IC50 [3]: 80.3 µM
IC50 (HeLa): 147 µM
IC50 (M059J): 195 µM
MIC [1]: 42 µM
logP [2]: 4.12
IC50 (MCF7 [4]): 194 µM
Ratio IC50 (MCF7 [5]): 0.4

CC[C@@]1(O)C(=O)OCc2c1cc1n(c2=O)Cc2cc3ccccc3nc2-1 [CAMPTOTHECIN]
IC50 [3]: 3.2 µM
IC50 (HeLa): 19.8 µM
IC50 (M059J): 5.5 µM
IC50 (MCF7 [4]): 6 µM
Ratio IC50 (MCF7 [5]): 0.5

COc1cccc2c1C(=O)c1c(O)c3c(c(O)c1C2=O)C[C@@](O)(C(=O)CO)C[C@@H]3O[C@H]1C[C@H](N)[C@H](O)[C@H](C)O1 [DOXORUBICIN]
IC50 [3]: 0.5 µM
IC50 (HeLa): 21.9 µM
IC50 (M059J): 6.9 µM

CC[C@@H](CO)NCCN[C@@H](CC)CO [ETHAMBUTOL]
MIC [1]: 15 µM (≈ 3.06 µg/mL)

COc1cc([C@@H]2c3cc4c(cc3[C@@H](O[C@@H]3O[C@@H]5CO[C@@H](C)O[C@H]5[C@H](O)[C@H]3O)[C@H]3COC(=O)[C@H]23)OCO4)cc(OC)c1O [ETOPOSIDE]
IC50 [3]: 1.2 µM
IC50 (HeLa): 226 µM
IC50 (M059J): 58.9 µM
IC50 (MCF7 [4]): 82.6 µM
Ratio IC50 (MCF7 [5]): 0

CCCCCCCCCCCCCCNCCO [MYRALACT]
MIC [1]: 49 µM (≈ 12.6 µg/mL)
logP [2]: 4.76

CO[C@H]1/C=C/O[C@@]2(C)Oc3c(C)c(O)c4c(O)c(c(/C=N/N5CCN(C)CC5)c(O)c4c3C2=O)NC(=O)/C(C)=C\C=C\[C@H](C)[C@H](O)[C@@H](C)[C@@H](O)[C@@H](C)[C@H](OC(C)=O)[C@@H]1C [RIFAMPIN]
MIC [1]: 1 µM (≈ 0.823 µg/mL)
